The compounds below were run against T1, h-GABAA α2β2γ1 (Homo sapiens, UniProt P47869+Q8N1C3) (assay: Radioligand binding assay, [3H]RO7239181 competition, HEK293F membranes).
T1 sequence (P47869 29-451): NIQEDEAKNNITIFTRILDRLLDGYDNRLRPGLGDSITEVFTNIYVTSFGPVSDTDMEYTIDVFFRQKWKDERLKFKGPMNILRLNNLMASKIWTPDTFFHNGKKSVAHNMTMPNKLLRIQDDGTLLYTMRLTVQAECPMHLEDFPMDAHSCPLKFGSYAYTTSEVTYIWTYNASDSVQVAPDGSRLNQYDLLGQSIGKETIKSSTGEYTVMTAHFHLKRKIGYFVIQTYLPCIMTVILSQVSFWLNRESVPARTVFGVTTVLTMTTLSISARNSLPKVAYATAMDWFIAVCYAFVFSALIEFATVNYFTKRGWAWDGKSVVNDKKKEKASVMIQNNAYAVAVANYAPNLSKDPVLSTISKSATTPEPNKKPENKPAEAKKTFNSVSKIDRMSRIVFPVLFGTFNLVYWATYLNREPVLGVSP
T1 sequence (P47870 25-512 partner limits assumed): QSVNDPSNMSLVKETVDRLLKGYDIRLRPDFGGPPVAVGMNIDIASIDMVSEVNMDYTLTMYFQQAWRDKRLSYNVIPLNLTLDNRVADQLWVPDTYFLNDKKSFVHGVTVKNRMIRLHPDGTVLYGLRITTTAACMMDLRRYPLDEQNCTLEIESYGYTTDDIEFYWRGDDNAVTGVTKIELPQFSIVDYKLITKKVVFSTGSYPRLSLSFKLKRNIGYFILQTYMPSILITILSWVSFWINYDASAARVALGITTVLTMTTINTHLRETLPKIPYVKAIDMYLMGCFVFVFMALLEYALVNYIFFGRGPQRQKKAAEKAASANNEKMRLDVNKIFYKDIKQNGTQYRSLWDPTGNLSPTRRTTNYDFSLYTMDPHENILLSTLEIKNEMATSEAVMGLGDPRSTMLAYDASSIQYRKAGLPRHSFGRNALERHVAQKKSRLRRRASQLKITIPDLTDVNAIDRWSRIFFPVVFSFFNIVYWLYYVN
T1 sequence (Q8N1C3 36-465): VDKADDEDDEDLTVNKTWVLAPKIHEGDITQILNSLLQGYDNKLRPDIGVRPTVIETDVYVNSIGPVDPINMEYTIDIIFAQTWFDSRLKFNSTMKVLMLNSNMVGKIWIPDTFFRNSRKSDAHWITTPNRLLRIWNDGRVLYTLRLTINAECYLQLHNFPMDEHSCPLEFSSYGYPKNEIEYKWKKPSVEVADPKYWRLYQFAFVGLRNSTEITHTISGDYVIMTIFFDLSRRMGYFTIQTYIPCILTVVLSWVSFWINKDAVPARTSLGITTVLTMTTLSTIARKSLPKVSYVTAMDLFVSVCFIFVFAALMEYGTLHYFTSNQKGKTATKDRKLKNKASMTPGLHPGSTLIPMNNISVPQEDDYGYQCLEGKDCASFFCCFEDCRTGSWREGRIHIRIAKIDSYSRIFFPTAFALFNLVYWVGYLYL
Parameters: signal peptide of human GABAA α5 subunit (Met1 to Ser31), replacing the α2 signal peptide (N); expressed in transfected cells; host or cells: HEK293F cells (ThermoFisher R79007), membranes
Procedure: The affinity of compounds at GABAA γ1 subunit-containing receptors was measured by competition for [^3H]RO7239181 (67.3 Ci/mmol; Roche) binding to membranes from HEK293F cells (ThermoFisher R79007) expressing human (transiently transfected) receptors of composition […], α2β2γ1, α1β2γ1.
Harvested pellets from HEK293F cells expressing the different GABAA receptor subtypes were resuspended in Mannitol Buffer pH 7.2-7.4 (Mannitol 0.29M, Triethylamine 10 mM, Acetic acid 10 mM, EDTA 1 mM plus protease inhibitors (20 tablets Complete, Roche Diagnostics Cat. No. 05 056 489 001 per liter)), washed two times and then resuspended at 1:10 to 1:15 dilution in the same buffer. Cell disruption was performed by stirring the suspension in a Parr vessel #4637 at 435 psi for 15 minutes, and then the suspensions were centrifuged at 1000×g for 15 minutes at 4° C. (Beckman Avanti J-HC; rotor JS-4.2). The supernatant (S1) was transferred in a 21 Schott flask and the pellet (P1) was resuspended with Mannitol Buffer up to 175 ml. The resuspended pellet was transferred into a 250 ml Corning centrifugal beaker and centrifuged at 1500×g for 10 minutes at 4° C. (Beckman Avanti J-HC; rotor JS-4.2). The supernatant (S1) was then transferred in the 21 Schott flask and the pellet was discarded. The supernatants (S1) were centrifuged in 500 ml Beckman polypropylene centrifugal beaker at 15′000×g for 30 minutes at 4° C. (Beckman Avanti J-20 XP; rotor JLA-10.500). The pellet (P2) was resuspended with Mannitol Buffer 1:1 and frozen at −80° C. The supernatant (S2) was centrifuged in 100 ml Beckman polypropylene centrifugal tubes at 48000×g for 50 minutes at 4° C. (Beckman Avanti J-20 XP; rotor JA-18). The supernatant (S3) was discarded and the pellet (P3) was resuspended with 1:1 Mannitol Buffer. The P2 and P3 protein concentration was determined with the BIORAD Standard assay method with bovine serum albumin as standard and measured on the NANO-Drop 1000. The membrane suspension was aliquots (500 μl per tube) and stored at −80° C. until required. Membrane homogenates were resuspended and polytronised (Polytron PT1200E Kinematica AG) in Potassium Phosphate 10 mM, KCl 100 mM binding buffer at pH 7.4 to a final assay concentration determined with a previous experiment.
Assays were incubated to equilibrium for 1 hour at 4° C. and then, membranes were filtered onto unifilter (96-well white microplate with bonded GF/C filters preincubated 20-50 minutes in 0.3% Polyethylenimine) with a Filtermate 196 harvester (Packard BioScience) and washed 4 times with cold Potassium Phosphate 10 mM pH 7.4, KCl 100 mM binding buffer. After drying, filter-retained radioactivity was detected by liquid scintillation counting. Ki values were calculated using Excel-Fit (Microsoft) and are the means of two determinations.
Work on Cc1nnc2n1-c1ccc(Br)c(Cl)c1C(c1c(F)cccc1F)=NC2 [Example 1, 8-bromo-7-chloro-6-(2,6-difluorophenyl)-1-methyl-4H-[1,2,4]triazolo[4,3-a][1,4]benzodiazepine] yielded a Ki of 8 nM.
Fc1ccccc1C1=NCc2nnc(C3CC3)n2-c2ccc(Br)c(Cl)c21 [Example 2, 8-bromo-7-chloro-1-cyclopropyl-6-(2-fluorophenyl)-4H-[1,2,4]triazolo[4,3-a][1,4]benzodiazepine] showed a Ki of 47.9 nM.
For Fc1ccccc1C1=NCc2nnc(-c3cccnn3)n2-c2ccc(Br)c(Cl)c21 [Example 3, 8-bromo-7-chloro-6-(2-fluorophenyl)-1-pyridazin-3-yl-4H-[1,2,4]triazolo[4,3-a][1,4]benzodiazepine], the Ki was 8.8 nM.
Cc1nnc2n1-c1ccc(Cl)c(Cl)c1C(c1ccccc1F)=NC2 [Example 4, 7,8-dichloro-6-(2-fluorophenyl)-1-methyl-4H-[1,2,4]triazolo[4,3-a][1,4]benzodiazepine] was tested, and the Ki was 65.8 nM.
Work on Cc1nnc2n1-c1ccc(Cl)c(Cl)c1C(c1c(F)cccc1F)=NC2 [Example 5, 7,8-dichloro-6-(2,6-difluorophenyl)-1-methyl-4H-[1,2,4]triazolo[4,3-a][1,4]benzodiazepine] yielded a Ki of 6.6 nM.
In the case of Cc1nnc2n1-c1ccc(C3CC3)c(Cl)c1C(c1c(F)cccc1F)=NC2 [Example 6, 7-chloro-8-cyclopropyl-6-(2,6-difluorophenyl)-1-methyl-4H-[1,2,4]triazolo[4,3-a][1,4]benzodiazepine], the Ki is reported as 93.3 nM.
In the case of Fc1cccc(F)c1C1=NCc2nncn2-c2ccc(Br)c(Cl)c21 [Example 7, 8-bromo-7-chloro-6-(2,6-difluorophenyl)-4H-[1,2,4]triazolo[4,3-a][1,4]benzodiazepine], the Ki is reported as 8.5 nM.
Fc1ccccc1C1=NCc2nncn2-c2ccc(Br)c(Cl)c21 [Example 8, 8-bromo-7-chloro-6-(2-fluorophenyl)-4H-[1,2,4]triazolo[4,3-a][1,4]benzodiazepine] was tested, and the Ki was 47.6 nM.
O=c1[nH]nc2n1-c1ccc(Cl)c(Cl)c1C(c1c(F)cccc1F)=NC2 [Example 9, 7,8-dichloro-6-(2,6-difluorophenyl)-2,4-dihydro-[1,2,4]triazolo[4,3-a][1,4]benzodiazepin-1-one] showed a Ki of 8 nM.
Fc1ccccc1C1=NCc2nnc(-c3cccnn3)n2-c2ccc(Cl)c(Cl)c21 [Example 10, 7,8-dichloro-6-(2-fluorophenyl)-1-pyridazin-3-yl-4H-[1,2,4]triazolo[4,3-a][1,4]benzodiazepine] was tested, and the Ki was 9.5 nM.
Fc1cccc(F)c1C1=NCc2nnc(C3CCOCC3)n2-c2ccc(Cl)c(Cl)c21 [Example 11, 7,8-dichloro-6-(2,6-difluorophenyl)-1-tetrahydropyran-4-yl-4H-[1,2,4]triazolo[4,3-a][1,4]benzodiazepine] showed a Ki of 49.1 nM.
In the case of Fc1cccc(F)c1C1=NCc2nnc(-c3ccncn3)n2-c2ccc(Cl)c(Cl)c21 [Example 12, 7,8-dichloro-6-(2,6-difluorophenyl)-1-pyrimidin-4-yl-4H-[1,2,4]triazolo[4,3-a][1,4]benzodiazepine], the Ki is reported as 10.4 nM.
For O=c1[nH]nc2n1-c1ccc(Br)c(Cl)c1C(c1c(F)cccc1F)=NC2 [Example 13, 8-bromo-7-chloro-6-(2,6-difluorophenyl)-2,4-dihydro-[1,2,4]triazolo[4,3-a][1,4]benzodiazepin-1-one], the Ki was 6.2 nM.
Fc1cccc(F)c1C1=NCc2nnc(-c3cccnn3)n2-c2ccc(Cl)c(Cl)c21 [Example 14, 7,8-dichloro-6-(2,6-difluorophenyl)-1-pyridazin-3-yl-4H-[1,2,4]triazolo[4,3-a][1,4]benzodiazepine] showed a Ki of 3.4 nM.
For Fc1cccc(F)c1C1=NCc2nncn2-c2ccc(Cl)c(Cl)c21 [Example 15, 7,8-dichloro-6-(2,6-difluorophenyl)-4H-[1,2,4]triazolo[4,3-a][1,4]benzodiazepine], the Ki was 8.7 nM.
With Cc1ccc2c(c1Cl)C(c1c(F)cccc1F)=NCc1n[nH]c(=O)n1-2 [Example 16, 7-chloro-6-(2,6-difluorophenyl)-8-methyl-2,4-dihydro-[1,2,4]triazolo[4,3-a][1,4]benzodiazepin-1-one] the Ki was 26.5 nM.
Cc1ccc2c(c1Cl)C(c1c(F)cccc1F)=NCc1nncn1-2 [Example 17, 7-chloro-6-(2,6-difluorophenyl)-8-methyl-4H-[1,2,4]triazolo[4,3-a][1,4]benzodiazepine] showed a Ki of 19.8 nM.
With Fc1ccccc1C1=NCc2nnc(-c3ccncn3)n2-c2ccc(Cl)c(Cl)c21 [Example 18, 7,8-dichloro-6-(2-fluorophenyl)-1-pyrimidin-4-yl-4H-[1,2,4]triazolo[4,3-a][1,4]benzodiazepine] the Ki was 21.6 nM.
Work on COCCc1nnc2n1-c1ccc(Cl)c(Cl)c1C(c1c(F)cccc1F)=NC2 [Example 19, 7,8-dichloro-6-(2,6-difluorophenyl)-1-(2-methoxyethyl)-4H-[1,2,4]triazolo[4,3-a][1,4]benzodiazepine] yielded a Ki of 26 nM.
In the case of Cc1ccc2c(c1Cl)C(c1c(F)cccc1F)=NCc1nnc(C)n1-2 [Example 20, 7-chloro-6-(2,6-difluorophenyl)-1,8-dimethyl-4H-[1,2,4]triazolo[4,3-a][1,4]benzodiazepine], the Ki is reported as 23.8 nM.
In the case of CC(F)(F)c1ccc2c(c1Cl)C(c1c(F)cccc1F)=NCc1nncn1-2 [Example 21, 7-chloro-8-(1,1-difluoroethyl)-6-(2,6-difluorophenyl)-4H-[1,2,4]triazolo[4,3-a][1,4]benzodiazepine], the Ki is reported as 52 nM.
Cc1nnc2n1-c1ccc(C(C)(F)F)c(Cl)c1C(c1c(F)cccc1F)=NC2 [Example 22, 7-chloro-8-(1,1-difluoroethyl)-6-(2,6-difluorophenyl)-1-methyl-4H-[1,2,4]triazolo[4,3-a][1,4]benzodiazepine] gave a Ki of 37.4 nM.
With Fc1cccc(F)c1C1=NCc2nncn2-c2ccc(C(F)F)c(Cl)c21 [Example 23, 7-chloro-8-(difluoromethyl)-6-(2,6-difluorophenyl)-4H-[1,2,4]triazolo[4,3-a][1,4]benzodiazepine] the Ki was 54.5 nM.

Reference: patent publication US20230141603A1, “BENZODIAZEPINE DERIVATIVES AS GABA A GAMMA1 PAM” (Hoffmann-La Roche Inc., priority 2021, published 2023)
